PubChem BioAssay (NCI)
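Values below derive from 48-hour exposures of cells grown in 96-well plates, with endpoints linearly interpolated between the two concentrations bracketing the appropriate inhibition level. GI50 marks 50% less growth. At the TGI there is no net growth.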

How the values were obtained:
Assay in all cases: DTP human tumour cell line panel, 48 h
[1] = tested on: CCRF-CEM leukemia
[2] = tested on: HCC-2998 colon
[3] = tested on: SNB-19 CNS
[4] = tested on: SW-620 colon
[5] = tested on: SNB-75 CNS
[6] = tested on: OVCAR-3 ovarian
[7] = tested on: M14 melanoma
[8] = tested on: MCF7 breast
[9] = tested on: CAKI-1 renal
[10] = tested on: MDA-MB-231 breast

SMILES: c1ccc(CC2COC(c3cccs3)=N2)cc1 (stereo not given)
- TGI [1]: > 100 µM
- TGI [2]: > 100 µM
- TGI [3]: > 100 µM
- TGI [4]: > 100 µM
- TGI [5]: > 100 µM
- TGI [6]: > 100 µM
- TGI [7]: > 100 µM
- TGI [8]: > 31.6 µM
- TGI [9]: > 100 µM
- TGI [10]: > 100 µM

SMILES: COc1ccc(Nc2ccc([N+](=O)[O-])cc2[N+](=O)[O-])cc1CN(CCCl)CCCl
- GI50 [1]: 0.64 µM
- TGI [1]: 20.7 µM
- GI50 [2]: 2.15 µM
- TGI [2]: 6.9 µM
- GI50 [3]: 3.22 µM
- TGI [3]: 25 µM
- GI50 [4]: 2.11 µM
- TGI [4]: 13.4 µM
- GI50 [5]: 2.39 µM
- TGI [5]: 13.4 µM
- GI50 [6]: 2.36 µM
- TGI [6]: 7.85 µM
- GI50 [7]: 2.72 µM
- TGI [7]: 19.6 µM
- GI50 [8]: 1.49 µM
- TGI [8]: 13.3 µM
- GI50 [9]: 1.39 µM
- TGI [9]: 4.33 µM
- GI50 [10]: 2.69 µM
- TGI [10]: 9.44 µM

SMILES: c1ccc(N=C2c3ccsc3C(=Nc3ccccc3)c3ccsc32)cc1
- TGI [1]: 15 µM
- TGI [2]: 7.25 µM
- TGI [3]: 3.88 µM
- TGI [4]: 3.93 µM
- TGI [5]: 2.45 µM
- TGI [6]: 6.55 µM
- TGI [7]: 2.32 µM
- TGI [8]: 4.79 µM
- TGI [9]: 10.2 µM
- TGI [10]: 4.5 µM

SMILES: COc1ccc2c3c1O[C@H](c1ccc(O)cc1)[C@H]3[N+](C)(C)CC2
- TGI [1]: > 100 µM
- TGI [2]: > 100 µM
- TGI [3]: > 100 µM
- TGI [4]: > 100 µM
- TGI [5]: > 100 µM
- TGI [6]: > 100 µM
- TGI [7]: > 100 µM
- TGI [8]: > 100 µM
- TGI [9]: > 100 µM
- TGI [10]: > 100 µM

SMILES: CO/N=C1/c2sccc2[C@H](NC(=O)C(Cc2ccccc2)NC(=O)OC(C)(C)C)[C@@H]1O (stereo not given in full)
- TGI [1]: > 100 µM
- TGI [2]: > 100 µM
- TGI [3]: > 100 µM
- TGI [4]: > 100 µM
- TGI [5]: > 100 µM
- TGI [6]: > 100 µM
- TGI [7]: > 100 µM
- TGI [8]: > 100 µM
- TGI [9]: > 100 µM
- TGI [10]: > 100 µM

SMILES: CN(C)CCc1c2c(nc3ccccc13)C(=O)c1cccnc1C2=O
- TGI [1]: 4.85 µM
- TGI [2]: 2.71 µM
- TGI [3]: 3.88 µM
- TGI [4]: 1.91 µM
- TGI [5]: 2.29 µM
- TGI [6]: 1.34 µM
- TGI [7]: 0.4 µM
- TGI [8]: 1.59 µM
- TGI [9]: 4.62 µM
- TGI [10]: 26.5 µM

SMILES: CC1(C)CC(=O)c2c(nc3c4c([nH]c(-c5ccc(Br)cc5)c24)CC(C)(C)C3)C1
- TGI [1]: > 100 µM
- TGI [2]: > 100 µM
- TGI [3]: > 100 µM
- TGI [4]: > 100 µM
- TGI [5]: > 100 µM
- TGI [6]: > 100 µM
- TGI [7]: > 100 µM
- TGI [8]: > 100 µM
- TGI [9]: > 100 µM
- TGI [10]: > 100 µM

SMILES: Cc1cnc2c(c1C)C(=O)c1ccccc1C2=O
- TGI [1]: > 100 µM
- TGI [2]: > 100 µM
- TGI [3]: > 100 µM
- TGI [4]: > 100 µM
- TGI [5]: > 100 µM
- TGI [6]: > 100 µM
- TGI [7]: > 100 µM
- TGI [8]: > 100 µM
- TGI [9]: > 100 µM
- TGI [10]: 93.9 µM

SMILES: CCCc1[nH]c2ccccc2c1-c1c(CCC)[nH]c2ccccc12
- TGI [1]: > 100 µM
- TGI [2]: 42.1 µM
- TGI [3]: 29.3 µM
- TGI [4]: 23.7 µM
- TGI [5]: 39.7 µM
- TGI [6]: 21.4 µM
- TGI [7]: 27.9 µM
- TGI [8]: 29.9 µM
- TGI [9]: 38.5 µM
- TGI [10]: 38.6 µM

SMILES: CC1CC(C#N)=C2NCCN2C1=O (stereo not given)
- TGI [1]: > 100 µM
- TGI [2]: > 100 µM
- TGI [3]: > 100 µM
- TGI [4]: > 100 µM
- TGI [5]: > 100 µM
- TGI [6]: > 100 µM
- TGI [7]: 33.5 µM
- TGI [8]: 50.7 µM
- TGI [9]: > 100 µM
- TGI [10]: > 100 µM

SMILES: CC(C)/C(Cl)=N/OC(=O)Nc1ccc(Cl)c(Cl)c1
- TGI [1]: 3.91 µM
- TGI [2]: 28.6 µM
- TGI [3]: 50.4 µM
- TGI [4]: 4.35 µM
- TGI [5]: 35.3 µM
- TGI [6]: 6.4 µM
- TGI [7]: 6.52 µM
- TGI [8]: 26.9 µM
- TGI [9]: 3.17 µM
- TGI [10]: 30.2 µM

SMILES: Nc1ncnc2c1ncn2[C@@H]1O[C@H](COC(c2ccccc2)(c2ccccc2)c2ccccc2)[C@@H](OC(=S)Oc2ccccc2)[C@@H]1F
- TGI [1]: 8.55 µM
- TGI [2]: 28.5 µM
- TGI [3]: 27.7 µM
- TGI [4]: 29.7 µM
- TGI [5]: 32.6 µM
- TGI [6]: 18.4 µM
- TGI [7]: 21 µM
- TGI [8]: 14.9 µM
- TGI [9]: 41.6 µM
- TGI [10]: 23.7 µM

SMILES: Clc1ccc2oc(CCc3ccccc3)nc2c1
- TGI [1]: > 100 µM
- TGI [2]: 77.1 µM
- TGI [3]: > 100 µM
- TGI [4]: > 100 µM
- TGI [5]: 62.8 µM
- TGI [6]: 85.1 µM
- TGI [7]: > 100 µM
- TGI [8]: > 100 µM
- TGI [9]: > 100 µM
- TGI [10]: > 100 µM
